Where a name gives a salt, the structure may show the parent alone. Values belong to the molecule of their own block, whether it stands above or below them.
Key:
in vitro = details: male, C57BL/6J, mouse, plasma, pH 7.4
Procedure: (§1) The experiment utilized a HT-Dialysis plate (HTD 96 b) and a dialysis membrane with a molecular weight cutoff of 12-14 kDa. The plasma was derived from male C57BL/6J mice, treated with EDTA-K2 as an anticoagulant. The experimental procedure commenced with plasma thawing under cold tap water, followed by centrifugation at 3220×g for 5 minutes to eliminate clots, and pH adjustment to 7.4+0.1.
(§2) Dialysis membranes were initially hydrated in ultra-pure water for about one hour and then treated in a 20:80 ethanol-water mixture for 20 minutes. These prepared membranes could be used immediately or stored at 2-8° C. for up to a month. Membranes were rinsed in ultra-pure water before use.
(§3) Test and control compounds were prepared at a 400 µM concentration by diluting stock solutions with DMSO. Working solutions were further diluted to create 2 μM loading matrix solutions, which were thoroughly mixed. In the assay, 50 μL aliquots of these solutions were dispensed in triplicate into a Sample Collection Plate, balanced with blank PBS to a final volume of 100 µL per well. A stop solution containing acetonitrile, tolbutamide, and labetalol was added, and samples were mixed and cooled at 2 to 8° C.
(§4) During the dialysis, 100 μL aliquots from the loading matrix were placed in the dialysis well's donor side, matched with an equal volume of PBS on the receiver side, and incubated at 37° C. for 4 hours. Post-dialysis, samples from both sides were collected, balanced to 100 μL with corresponding blank fluids, treated with stop solution, vortexed, and centrifuged to prepare for LC-MS/MS analysis.
(§5) Data analysis involved calculating the percentages of Unbound, Bound, and Recovery of the compounds post-dialysis. % Unbound was calculated as the ratio of the compound's peak area on the receiver side to its internal standard, reflecting the fraction that crossed the membrane. % Bound was the complement of % Unbound, representing the fraction retained on the donor side. % Recovery was determined from the peak area ratios on both sides of the membrane, assessing the dialysis efficiency in retaining the compound. These metrics provided insights into the compound's free, bound, and recoverable quantities, elucidating its behavior in the dialysis system.

plasma proteins = test: in vitro; details: male, C57BL/6J, mouse, pH 7.4
Procedure: as §1, §2, §3, §4, §5

brain proteins = test: in vitro; details: for % Undiluted Unbound (n = 3): brain homogenate
Procedure: The initial preparation of the dialysis membrane involved thawing brain homogenate in a water bath at room temperature and subsequently heating it at 37° C. for 10 minutes. The dialysis setup utilized was from HT Dialysis LLC, featuring a HT-Dialysis plate (Model HTD 96 b) and a dialysis membrane with a molecular weight cutoff of 12-14 kDa.
The membrane underwent a comprehensive pretreatment which included hydration in ultra-pure water at room temperature for approximately one hour. This was followed by separation and immersion in a 20:80 ethanol:water solution for about 20 minutes. After this treatment, the membranes were either used immediately or stored at 2-8° C. for up to one month, with a final rinse in ultra-pure water prior to experimental use.
For compound preparation, test and control substances were first dissolved to create 400 μM working solutions by mixing 4 μL of stock solution with 96 μL of DMSO. These working solutions were then further diluted to 2 μM in a blank matrix by combining 3 μL of the prepared solution with 597 μL of matrix, ensuring thorough mixing.
During the assay, 50 μL aliquots of the 2 μM compound-matrix mixture were dispensed in triplicate into a Sample Collection Plate. Each aliquot was paired with an equal volume of blank PBS to standardize the total volume to 100 μL per well at a 1:1 matrix to PBS ratio. A stop solution comprising 500 μL of acetonitrile with tolbutamide and labetalol at 250 nM each was added to stabilize the samples at TO. The samples were then shaken at 800 rpm for 10 minutes and stored at 2-8° C.
The dialysis procedure included assembling the dialysis device according to the manufacturer's specifications, loading the matrix aliquots into the donor side of the dialysis wells, and conducting the dialysis under a humidified atmosphere with 5% CO2 at 37° C. for 4 hours.
Post-dialysis, 50 μL samples were collected from both the receiver and donor sides into new 96-well plates. Volumes were adjusted to 100 μL by adding an equivalent amount of the opposite blank matrix or PBS. The samples were prepared for LC-MS/MS analysis after thorough vertexing and centrifugation. Blank control samples were prepared and processed similarly to mirror the test conditions.
Data analysis involved calculating the percentages of undiluted unbound and bound fractions, and recovery of the compounds.

in vivo = details: male, C57BL/6J, mouse, po, 5 mg/kg
Procedure: Male C57BL/6J mouse was use in the in vivo distribution assay. The sample of brain, spinal cord and serum were collected for the drug distribution calculation.
Before commencing the study, the mice were acclimated to the test facility for at least 3 days. During this period, their general health was assessed by veterinary staff or other authorized personnel. The mice were housed in groups of up to four per cage in polysulfone cages, using either certified aspen shaving bedding or corncob bedding. This bedding was regularly tested for environmental contaminants by the manufacturer. The facility's environment was carefully controlled to maintain a temperature range of 20-26° C., relative humidity between 40 to 70%, and a 12-hour light/12-hour dark cycle, although this cycle can be interrupted for study-related activities. Temperature and humidity were continuously monitored by the Vawasala ViewLinc Monitoring system.
For dosing, an appropriate amount of the compounds was accurately weighed and mixed with a suitable volume of vehicle to achieve a clear solution. This process may require vertexing or sonication in a water bath. The animals were dosed within four hours of formulation preparation. Samples from each formulation were then collected for dose validation using either LC/UV or LC-MS/MS analysis.
Oral gavage was employed for dosing following the facility's SOPs, with the dose volume based on the animal's body weight measured on the morning of the dosing day.
Blood collections were performed from the saphenous vein or another suitable site, with approximately 0.1 mL collected per time point into pre-chilled commercial EDTA-K2 tubes. The samples were kept on wet ice until centrifugation at 4° C. and 3,200 g for 10 minutes. The plasma was then transferred into pre-labeled 96-well plates or polypropylene tubes, quick-frozen over dry ice, and stored at −60° C. or lower until LC-MS/MS analysis. […]
We calculated AUC ratio from the equation AUC ratio=Tissue AUC0-last/plasma AUC0-last. […]

MC38 tumor = test system: MC38 tumor
Procedure: The cells in exponential growth phase were harvested and quantitated by cell counter before tumor inoculation. […] The date of randomization was denoted as day 0.
After tumor cells inoculation, the animals were checked daily for morbidity and mortality. […] Mortality and observed clinical signs were recorded for individual animals in detail. […] Dosing as well as tumor and body weight measurements were conducted in a Laminar Flow Cabinet. The body weights and tumor volumes were measured by using StudyDirector™ software (version 3.1.399.19).

[1] = mouse, in vivo, po, 1 mg/kg
Procedure: Initially, mice were acclimatized to the testing environment for 8 hours the day before the experiment, followed by at least 2 hours of habituation on the day of the test. The mice were then grouped randomly based on their body weight into six per group, ensuring a balanced distribution for the administration of the drug, which was dissolved in 20% HP-β-CD in water.
The locomotor activity was monitored by placing the mice in the center of a test box, with a video tracking system measuring the distance traveled every 5 minutes for 60 minutes. The testing began at T=0 minutes, immediately after administering the vehicle or compounds, and concluded at T=60 minutes. For data analysis, Prism 8.3.0 software was utilized, employing Two-way ANOVA followed by Bonferroni's multiple comparison test to analyze distance variations across different time points and One-way ANOVA followed by Dunnett's multiple comparisons test for assessing the total distance covered by the groups. A significance level of p<0.05 was established for determining significant differences.

P-glycoprotein (P-gp) = P-glycoprotein (P-gp) (Homo sapiens, UniProt P08183); test: in vitro; details: MDCK-MDR1
Chain of P-glycoprotein (P-gp) (P08183 whole entry): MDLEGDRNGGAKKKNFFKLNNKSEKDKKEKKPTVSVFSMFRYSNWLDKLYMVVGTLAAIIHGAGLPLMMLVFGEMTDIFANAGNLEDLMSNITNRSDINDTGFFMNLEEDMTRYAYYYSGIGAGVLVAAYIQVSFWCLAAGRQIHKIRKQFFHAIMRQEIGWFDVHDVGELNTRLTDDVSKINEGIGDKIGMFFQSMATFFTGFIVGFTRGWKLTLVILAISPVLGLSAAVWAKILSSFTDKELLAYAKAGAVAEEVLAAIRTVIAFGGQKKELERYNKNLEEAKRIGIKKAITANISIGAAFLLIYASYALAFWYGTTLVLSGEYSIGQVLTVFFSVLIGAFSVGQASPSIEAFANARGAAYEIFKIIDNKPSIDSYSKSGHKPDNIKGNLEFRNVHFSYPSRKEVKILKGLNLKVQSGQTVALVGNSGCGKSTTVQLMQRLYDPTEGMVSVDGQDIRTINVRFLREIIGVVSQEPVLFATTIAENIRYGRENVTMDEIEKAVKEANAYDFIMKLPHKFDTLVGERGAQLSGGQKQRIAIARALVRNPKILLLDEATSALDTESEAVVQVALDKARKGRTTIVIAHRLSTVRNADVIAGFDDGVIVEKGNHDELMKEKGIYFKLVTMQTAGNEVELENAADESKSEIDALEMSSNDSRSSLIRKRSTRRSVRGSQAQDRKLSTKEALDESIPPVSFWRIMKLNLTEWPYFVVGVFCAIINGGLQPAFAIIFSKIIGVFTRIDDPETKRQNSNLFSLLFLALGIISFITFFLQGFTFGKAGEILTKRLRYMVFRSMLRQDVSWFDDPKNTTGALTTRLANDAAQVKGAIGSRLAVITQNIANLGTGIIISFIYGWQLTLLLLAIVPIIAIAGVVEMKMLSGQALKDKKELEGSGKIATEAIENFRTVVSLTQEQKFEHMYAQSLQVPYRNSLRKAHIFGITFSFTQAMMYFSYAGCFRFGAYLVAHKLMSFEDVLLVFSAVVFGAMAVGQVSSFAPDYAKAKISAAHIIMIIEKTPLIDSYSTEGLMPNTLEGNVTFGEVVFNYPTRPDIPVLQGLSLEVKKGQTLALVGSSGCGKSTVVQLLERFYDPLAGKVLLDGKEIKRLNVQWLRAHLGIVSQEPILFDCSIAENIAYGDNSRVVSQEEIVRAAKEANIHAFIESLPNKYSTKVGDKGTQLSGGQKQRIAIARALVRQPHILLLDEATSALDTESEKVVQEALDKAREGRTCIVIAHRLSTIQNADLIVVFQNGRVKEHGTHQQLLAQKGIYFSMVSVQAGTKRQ
Procedure: (§6) MDR1-MDCK II cells (obtained from Piet Borst at the Netherlands Cancer Institute) were seeded onto Polycarbonate membranes (PC) in 96-well insert systems at 3.33×10^5 cells/mL until to 4-7 days for confluent cell monolayer formation.
(§7) Selected α2AR agonist from table 3s were diluted with the transport buffer (HBSS with 10.0 mM Hepes, pH7.4) from DMSO stock solution to a concentration of 2 μM (DMSO<1%) and applied to the apical or basolateral side of the cell monolayer. […] Permeation of the test compounds from A to B direction and/or B to A direction was determined in duplicate. Digoxin was tested at 10.0 μM from A to B direction and B to A direction in duplicate. The plate was incubated for 2.5 hours in CO2 incubator at 37.0±1.0° C., with 5.0% CO2 at saturated humidity without shaking. In addition, the efflux ratio of each compound was also determined. Test and reference compounds were quantified by LC/MS/MS analysis based on the peak area ratio of analyte/IS.
(§8) After transport assay, lucifer yellow rejection assay was applied to determine the cell monolayer integrity. Buffers were removed from both apical and basolateral chambers, followed by the addition of 75 μL of 100 μM lucifer yellow in transport buffer and 250 μL transport buffer in apical and basolateral chambers, respectively. The plate was incubated for 30 minutes at 37.0° C. with 5.0% CO2 and 95.0% relative humidity without shaking. After 30 minutes incubation, 20 μL of lucifer yellow samples were taken from the apical sides, followed by the addition of 60 μL of transport Buffer. And then 80 μL of lucifer yellow samples were taken from the basolateral sides. The relative fluorescence unit (RFU) of lucifer yellow was measured at 425/528 nm (excitation/emission) with an Envision plate reader.
(§9) The apparent permeability coefficient Papp (cm/s) was calculated using the equation: […]
(§10) wherein dCr/dt is the cumulative concentration of compound in the receiver chamber as a function of time (μM/s); Vr is the solution volume in the receiver chamber (0.075 mL on the apical side, 0.25 mL on the basolateral side); A is the surface area for the transport, i.e. 0.143 cm2 for the area of the monolayer; and C0 is the initial concentration in the donor chamber (μM).
(§11) The efflux ratio was calculated using the equation: […]

[2] = biological target: T1, α2AAR (α2A-adrenergic receptor) (Homo sapiens, UniProt P08913); test: α2AAR FLIPR assay (agonist activity); format: cell-based; details: FLIPR, α2AAR cell line hosted in HEK293 cells; read-out: α2A agonist activity (EC50)
T1 construct: expressed in transfected cells; host or cells: HEK293
T1 sequence (P08913 1-465): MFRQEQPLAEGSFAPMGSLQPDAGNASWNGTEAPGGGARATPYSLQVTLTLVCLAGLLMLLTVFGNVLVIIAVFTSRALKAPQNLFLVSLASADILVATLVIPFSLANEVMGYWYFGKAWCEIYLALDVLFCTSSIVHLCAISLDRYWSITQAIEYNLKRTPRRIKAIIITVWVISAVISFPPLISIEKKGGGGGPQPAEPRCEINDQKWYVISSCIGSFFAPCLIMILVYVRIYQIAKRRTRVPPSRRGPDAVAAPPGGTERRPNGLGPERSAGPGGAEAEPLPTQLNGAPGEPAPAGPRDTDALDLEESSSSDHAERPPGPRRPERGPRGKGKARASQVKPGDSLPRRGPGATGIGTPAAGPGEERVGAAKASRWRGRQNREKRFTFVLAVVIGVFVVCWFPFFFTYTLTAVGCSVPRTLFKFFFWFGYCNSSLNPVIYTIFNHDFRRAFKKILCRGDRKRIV
How it was run: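 HEK293 cells expressing α2AAR loaded with Fluo-4 Direct plus probenecid for 50 min at 37° C and 10 min at room temperature, then treated with serially diluted compounds.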

α2AAR = biological target: T2, α2AAR (Homo sapiens, UniProt P08913); test: α2AAR binding assay ([3H]-RX 821002 radioligand); details: [3H]-RX 821002 0.5 nM, HEK293 membranes; read-out: α2A affinity (Ki)
T2 construct: host or cells: HEK293 (membranes)
T2 sequence (P08913 1-465): T1 sequence (P08913 1-465)

[3] = biological target: P-glycoprotein (P-gp, MDR1) (Homo sapiens, UniProt P08183); test: in vitro; details: dog, MDCK-MDR1, pH 7.4
Chain of P-glycoprotein (P-gp, MDR1) (P08183 whole entry): as the sequence (P08183 whole entry) above
Procedure: as §6, §7, §8, §9, §10, §11

[4] = D17, G2: 5 mg/kg p.o. QD Day 0~Day 3, then 2 mg/kg QD Day 4~Day 17

SMILES: Clc1cccc(Cl)c1N=C1NCCN1 [Clonidine HCl, clonidine HCl]
- fraction unbound at 4 h, 2 μM (in vitro): 0.708
- recovery at 4 h, 2 μM (plasma proteins): 93.2%
- recovery at 4 h, 2 μM (brain proteins): 105%
- % Undiluted Unbound (n = 3) (brain proteins; 4 h, 2 μM): 23.0%
- Kp (in vivo): 2.27
- Kp uu (in vivo): 0.739

SMILES: Clc1cccc(Cl)c1N=C1NCCN1 [Clonidine, clonidine]
- T/C (%) (MC38 tumor; [4]): 27.38%
- TGI (%) (MC38 tumor; [4]): 72.62%
- Tumor volume (mm^3) (mean ± SEM) (MC38 tumor; [4]): 766.52 ± 147.17 mm^3
- state of mice at high dose (MC38 tumor; G2 group, 5 mg/mL, Day 0-3, p.o.): poor state of mice
- sedation (total distance travelled 0-60 min) [1]: significant sedation

- fraction unbound at 4 h, 2 μM (in vitro): 0.068
- recovery at 4 h, 2 μM (plasma proteins): 88.9%
- recovery at 4 h, 2 μM (brain proteins): 93.8%
- % Undiluted Unbound (n = 3) (brain proteins; 4 h, 2 μM): 6.3%
- Kp (in vivo): 1.26
SMILES: Cc1cccc([C@H](C)c2cnc[nH]2)c1C [Dexmedetomidine HCl, dexmedetomidine HCl]

SMILES: Oc1ccc2c(c1)C(Cc1c[nH]cn1)CC2 (centres unmarked) [Fadolmidine, reference compound]
- Efflux ratio (P-glycoprotein (P-gp)): 0.80

- recovery at 4 h, 2 μM (brain proteins): 109%
- % Undiluted Bound (n = 3) (brain proteins; 4 h, 2 μM): 97.4%
- % Undiluted Unbound (n = 3) (brain proteins; 4 h, 2 μM): 2.6%
SMILES: CC(C)NCC(O)COc1cccc2ccccc12 (centres unmarked) [Propranolol, propranolol]

- EC50 [2]: 10 to 50 nM
- Ki (α2AAR): < 10 nM
- efflux ratio at 2.5 h, 2 μM [3]: 56.1
SMILES: Cc1cccc(C(Cc2ccc(NC(=O)NC3COC3)cc2)c2c[nH]cn2)c1C (centres unmarked) [compound 214]

- EC50 [2]: < 10 nM
- Ki (α2AAR): < 10 nM
- efflux ratio at 2.5 h, 2 μM [3]: 4.77
SMILES: CNC(=O)c1ccc(CC(c2c[nH]cn2)c2cccc(C)c2C)cc1 (centres unmarked) [compound 215]

- EC50 [2]: < 10 nM
- Ki (α2AAR): < 10 nM
- efflux ratio at 2.5 h, 2 μM [3]: 3.21
SMILES: Cc1cccc(C(Cc2ccc(C(=O)N(C)C)cc2)c2c[nH]cn2)c1C (centres unmarked) [compound 216]

- EC50 [2]: < 10 nM
- Ki (α2AAR): < 10 nM
- efflux ratio at 2.5 h, 2 μM [3]: 17.5
SMILES: Cc1cccc(C(Cc2ccc(S(N)(=O)=O)cc2)c2c[nH]cn2)c1C (centres unmarked) [compound 217]

- EC50 [2]: < 10 nM
- Ki (α2AAR): < 10 nM
- efflux ratio at 2.5 h, 2 μM [3]: 26.9
SMILES: Cc1cccc(C(Cc2ccc(C(=O)NO)cc2)c2c[nH]cn2)c1C (centres unmarked) [compound 219]

- EC50 [2]: 10 to 50 nM
- Ki (α2AAR): < 10 nM
- efflux ratio at 2.5 h, 2 μM [3]: 22
SMILES: CCc1cscc1C(c1cccc(NS(C)(=O)=O)c1)c1c[nH]cn1 (centres unmarked) [compound 401]

Source: patent US20240374573A1, “IMIDAZOLE CONTAINING COMPOUNDS, DERIVATIVES THEREFORE, AND USES THEREOF” (AglaeaPharma Inc., priority 2023, published 2024)
